Measurements published in ChEMBL document CHEMBL1201862, “PubChem BioAssay data set” (2004).
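Each compound was tested at five concentrations against cells in 96-well plates for 48 hours. GI50 = concentration required for 50% inhibition of growth.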 The source made the active and inactive calls. Cut-off read from the data, not from the text of the source: active = GI50 up to about 1.1 µM and inactive = higher.

Legend:
Test in all cases: DTP human tumour cell line panel, 48 h
HCT-15 = test system: HCT-15
SW-620 = test system: SW-620
DU-145 = test system: DU-145
A498 = test system: A498
NCI-H23 = test system: NCI-H23
HL-60 = test system: HL-60
SK-MEL-28 = test system: SK-MEL-28
MDA-MB-435 = test system: MDA-MB-435
OVCAR-5 = test system: OVCAR-5
SNB-75 = test system: SNB-75
HCT-116 = test system: HCT-116
Malme-3M = test system: Malme-3M
SF-295 = test system: SF-295
A549 = test system: A549
SF-539 = test system: SF-539
CAKI-1 = test system: CAKI-1
MCF7 = test system: MCF7
SK-OV-3 = test system: SK-OV-3
RXF 393 = test system: RXF 393

SMILES	GI50 (HCT-15)	GI50 (SW-620)	GI50 (DU-145)	GI50 (A498)	GI50 (NCI-H23)	GI50 (HL-60)	GI50 (SK-MEL-28)	GI50 (MDA-MB-435)	GI50 (OVCAR-5)	GI50 (SNB-75)	GI50 (HCT-116)	GI50 (Malme-3M)	GI50 (SF-295)	GI50 (A549)	GI50 (SF-539)	GI50 (CAKI-1)	GI50 (MCF7)	GI50 (SK-OV-3)	GI50 (RXF 393)
Cc1nc2ccccc2[nH]/c1=N/Nc1ccccc1	18.9 µM	40.6 µM (inactive)	22.7 µM (inactive)	31.8 µM (inactive)	18.1 µM (inactive)	11.7 µM (inactive)	26.5 µM (inactive)	14.8 µM (inactive)	26.7 µM (inactive)	18.1 µM (inactive)	25.8 µM (inactive)	20.3 µM (inactive)	18.6 µM (inactive)	21.5 µM (inactive)	44.5 µM (inactive)	27 µM (inactive)	12.3 µM (inactive)		
COc1ccc(C(OC(C)=O)C2C(=C(C#N)C#N)c3ccccc3C2=C(C#N)C#N)cc1 (stereo not given)	31.2 µM	36.8 µM (inactive)	64.9 µM (inactive)	24.1 µM (inactive)	25.9 µM (inactive)	18.5 µM (inactive)	67.3 µM (inactive)	36.7 µM (inactive)	17.2 µM (inactive)	36.1 µM (inactive)	35.1 µM (inactive)		19.9 µM (inactive)		20.6 µM (inactive)	39.6 µM (inactive)	48.3 µM (inactive)	18.6 µM (inactive)	67.9 µM (inactive)
COc1ccccc1/N=C1\SCCN1C(=S)Nc1ccc(S(=O)(=O)/N=C/N(C)C)cc1	31.6 µM	44.9 µM (inactive)	29.6 µM (inactive)	> 100 µM (inactive)	27.1 µM (inactive)	27.4 µM (inactive)	30.1 µM (inactive)	24.9 µM (inactive)	87.5 µM (inactive)	29.6 µM (inactive)	41.7 µM (inactive)		> 100 µM (inactive)	> 100 µM (inactive)	21.9 µM (inactive)	33.7 µM (inactive)	26.1 µM (inactive)	> 100 µM (inactive)	16.6 µM (inactive)
CNn1c(-c2ccccc2)n[nH]c1=O	> 100 µM	> 100 µM (inactive)	> 100 µM (inactive)	> 100 µM (inactive)	> 100 µM (inactive)	> 100 µM (inactive)	> 100 µM (inactive)	> 100 µM (inactive)	> 100 µM (inactive)	> 100 µM (inactive)	> 100 µM (inactive)	> 100 µM (inactive)	> 100 µM (inactive)	> 100 µM (inactive)	> 100 µM (inactive)	> 100 µM (inactive)	> 100 µM (inactive)	> 100 µM (inactive)	
CC1=NN=C(N)N/C1=C\C(Sc1ccc(Cl)cc1)c1ccc([N+](=O)[O-])cc1 (stereo not given)	94 µM	85.3 µM (inactive)	> 100 µM (inactive)	> 100 µM (inactive)	80.9 µM (inactive)	32.8 µM (inactive)	> 100 µM (inactive)	83.9 µM (inactive)	> 100 µM (inactive)		39.8 µM (inactive)	> 100 µM (inactive)	> 100 µM (inactive)	> 100 µM (inactive)		> 100 µM (inactive)	57.9 µM (inactive)	> 100 µM (inactive)	> 100 µM (inactive)
c1ccc(-c2cc(C3CO3)c3ccccc3n2)cc1 (stereo not given)	19.5 µM	27.9 µM (inactive)	16.9 µM (inactive)	19.7 µM (inactive)	19.1 µM (inactive)	26.9 µM (inactive)	38.5 µM (inactive)	18.9 µM (inactive)	22 µM (inactive)	25.9 µM (inactive)	16.5 µM (inactive)		35.2 µM (inactive)	20.1 µM (inactive)	21.2 µM (inactive)	22.5 µM (inactive)	16.2 µM (inactive)	35 µM (inactive)	13.5 µM (inactive)
CCCNc1[nH]c(C(=O)c2ccccc2)c(N)c1C(=S)Nc1ccccc1	> 100 µM	> 100 µM (inactive)	> 100 µM (inactive)	> 100 µM (inactive)	> 100 µM (inactive)	> 100 µM (inactive)	> 100 µM (inactive)	> 100 µM (inactive)	> 100 µM (inactive)	> 100 µM (inactive)	> 100 µM (inactive)	> 100 µM (inactive)	> 100 µM (inactive)	> 100 µM (inactive)	> 100 µM (inactive)	> 100 µM (inactive)	> 100 µM (inactive)	> 100 µM (inactive)	
Nc1ccc2c(c1)C1Oc3ccccc3CC1CO2 (stereo not given)	15.7 µM	> 100 µM (inactive)	> 100 µM (inactive)	> 100 µM (inactive)	> 100 µM (inactive)	> 100 µM (inactive)		> 100 µM (inactive)	> 100 µM (inactive)		> 100 µM (inactive)	> 100 µM (inactive)	> 100 µM (inactive)	> 100 µM (inactive)	> 100 µM (inactive)	> 100 µM (inactive)	> 100 µM (inactive)	> 100 µM (inactive)	
Cc1ccc(S(N)(C(=O)Nc2cccc3ccccc23)[N+](=O)[O-])cc1 (stereo not given)	> 100 µM	> 100 µM (inactive)	68.2 µM (inactive)	> 100 µM (inactive)	> 100 µM (inactive)	39.3 µM (inactive)	> 100 µM (inactive)	> 100 µM (inactive)	> 100 µM (inactive)	> 100 µM (inactive)	66.7 µM (inactive)	> 100 µM (inactive)	89.7 µM (inactive)			> 100 µM (inactive)	59.2 µM (inactive)	> 100 µM (inactive)	> 100 µM (inactive)
O=C1C(Br)=CC2(C=C1Br)CCNC1=C2C(=O)c2[nH]cnc2C1=O	15.6 µM	17.7 µM (inactive)	16 µM (inactive)	19 µM (inactive)	12.6 µM (inactive)	4.79 µM (inactive)	16.1 µM (inactive)	11 µM (inactive)	15.9 µM (inactive)	15.6 µM (inactive)	14.7 µM (inactive)		16.2 µM (inactive)	18.3 µM (inactive)	18.1 µM (inactive)	24.5 µM (inactive)	14.6 µM (inactive)	21.5 µM (inactive)	16.3 µM (inactive)
Nc1nc(O)c2ncn(C3C=CC(CO)C3)c2n1 (stereo not given)	> 100 µM	> 100 µM (inactive)	> 100 µM (inactive)	> 100 µM (inactive)	> 100 µM (inactive)		> 100 µM (inactive)	> 100 µM (inactive)	> 100 µM (inactive)	> 100 µM (inactive)	> 100 µM (inactive)	> 100 µM (inactive)	> 100 µM (inactive)	> 100 µM (inactive)	> 100 µM (inactive)	> 100 µM (inactive)	> 100 µM (inactive)	> 100 µM (inactive)	> 100 µM (inactive)
CC(=O)O[C@@H]1[C@H]2O[C@H]2[C@H]2O[C@@]2(COC(=O)c2ccccc2)[C@H]1OC(C)=O	> 100 µM	> 100 µM (inactive)	73.5 µM (inactive)	> 100 µM (inactive)	> 100 µM (inactive)	> 100 µM (inactive)	> 100 µM (inactive)	> 100 µM (inactive)	> 100 µM (inactive)	> 100 µM (inactive)	> 100 µM (inactive)	> 100 µM (inactive)	> 100 µM (inactive)	> 100 µM (inactive)	> 100 µM (inactive)	99.1 µM (inactive)	> 100 µM (inactive)	> 100 µM (inactive)	
O=C1C(Cl)=C(N2C(=O)CCC2=O)C(=O)c2ccccc21	13.2 µM	23.1 µM (inactive)	32.7 µM (inactive)	37.9 µM (inactive)	29 µM (inactive)	2.51 µM (inactive)	20.4 µM (inactive)	19.8 µM (inactive)	20.4 µM (inactive)	> 100 µM (inactive)	22.8 µM (inactive)		> 100 µM (inactive)	31.8 µM (inactive)	39.8 µM (inactive)	19.1 µM (inactive)	17.2 µM (inactive)	> 100 µM (inactive)	18.5 µM (inactive)
C[C@@H](NC(=O)OC1C=CC2(CC1)C(=O)N(C)c1ccccc12)c1cccc2ccccc12 (stereo not given in full)	14.9 µM	> 25 µM (inactive)	> 25 µM (inactive)	> 25 µM (inactive)	12.2 µM (inactive)	0.944 µM (active)	> 25 µM (inactive)	9.57 µM (inactive)	> 25 µM (inactive)	21.5 µM (inactive)	4.56 µM (inactive)		12.7 µM (inactive)	12.8 µM (inactive)		> 25 µM (inactive)	7.59 µM (inactive)	> 25 µM (inactive)	
CCOc1ccc(NC(=O)C(=O)C(/C(=N/N)C(=O)OC)c2nc3ccc([N+](=O)[O-])cc3nc2O)cc1 (stereo not given)	> 100 µM	> 100 µM (inactive)	> 100 µM (inactive)	> 100 µM (inactive)	> 100 µM (inactive)		> 100 µM (inactive)	> 100 µM (inactive)	> 100 µM (inactive)	> 100 µM (inactive)	> 100 µM (inactive)	> 100 µM (inactive)	> 100 µM (inactive)	> 100 µM (inactive)	> 100 µM (inactive)	> 100 µM (inactive)	> 100 µM (inactive)	> 100 µM (inactive)	36.1 µM (inactive)
Nc1ccc2[nH]c(C(=O)N3CC(CCl)c4c3cc(N)c3ccccc43)cc2c1 (stereo not given)	< 0.01 µM	< 0.01 µM (active)	< 0.01 µM (active)	< 0.01 µM (active)	< 0.01 µM (active)	< 0.01 µM (active)	0.013 µM (active)	0.011 µM (active)	< 0.01 µM (active)	< 0.01 µM (active)	< 0.01 µM (active)		< 0.01 µM (active)	< 0.01 µM (active)	< 0.01 µM (active)	< 0.01 µM (active)	< 0.01 µM (active)	0.0175 µM (active)	< 0.01 µM (active)
